Results: ChEMBL document CHEMBL3351644, “Tryptophanol-derived oxazolopiperidone lactams: identification of a hit compound as NMDA receptor antagonist” (Bioorg Med Chem Lett, 2014)
pIC50: −log10 of the molar value.

Biological target: Glutamate NMDA receptor
Assay: Antagonist activity at NMDA receptor in Wistar rat cerebellar granule neurons assessed as inhibition of NMDA-induced intracellular calcium by Fura-2 fluorescence assay
Format: cell-based

pIC50	Structure (SMILES)
< 3.35	CC[C@@H]1CCC(=O)N2[C@@H](Cc3c[nH]c4ccccc34)CO[C@@H]12
3.47	O=C1CC[C@@H]2OC[C@@H](Cc3c[nH]c4ccccc34)N12
< 3.35	CC[C@H]1CCC(=O)N2[C@@H](Cc3c[nH]c4ccccc34)CO[C@H]12
3.52	O=C1CCC[C@@H]2OC[C@H](Cc3c[nH]c4ccccc34)N12
< 3.35	Cn1cc(C[C@@H]2CO[C@H]3CCCC(=O)N23)c2ccccc21
< 3.35	CC[C@H]1CCC(=O)N2[C@H](Cc3c[nH]c4ccccc34)CO[C@H]12
4.20	O=C1CCC[C@@H]2OC[C@@H](Cc3c[nH]c4ccccc34)N12
< 3.35	CC[C@@H]1CCC(=O)N2[C@H](Cc3c[nH]c4ccccc34)CO[C@@H]12
< 3.35	COC(=O)C[C@@H]1CC(=O)N2[C@H](Cc3c[nH]c4ccccc34)CO[C@@H]2C1
< 3.35	COC(=O)C[C@H]1CC(=O)N2[C@@H](Cc3c[nH]c4ccccc34)CO[C@@H]2C1
3.37	O=C1CCC[C@H]2OC[C@H](Cc3c[nH]c4ccccc34)N12
< 3.35	COC(=O)C[C@H]1CC(=O)N2[C@H](Cc3c[nH]c4ccccc34)CO[C@H]2C1
< 3.35	COC(=O)C[C@@H]1CC(=O)N2[C@@H](Cc3c[nH]c4ccccc34)CO[C@@H]2C1
< 3.35	Cc1ccc(S(=O)(=O)n2cc(C[C@@H]3CO[C@H]4CCCC(=O)N34)c3ccccc32)cc1
< 3.35	O=C1CCC[C@H]2OC[C@@H](Cc3c[nH]c4ccccc34)N12

Biological target: Glutamate NMDA receptor (Rattus norvegicus) (UniProt P35439+Q00959+Q00960+Q00961+Q62645+Q8VHN2+Q9R1M7)
Assay: Ratio of amantadine IC50 to compound IC50 for NMDA receptor in Wistar rat cerebellar granule neurons assessed as inhibition of NMDA-induced intracellular calcium by Fura-2 fluorescence assay
Format: cell-based

Ratio IC50	Structure (SMILES)
1.5	O=C1CCC[C@@H]2OC[C@@H](Cc3c[nH]c4ccccc34)N12
